Assay [1] addresses T1, T1R1/T1R3 receptor (Felis catus, UniProt E3UMS2). In words: Example 6: activation of T1R1/T1R3 by transmembrane compounds, conducted as in Example 5. The assay is classed as cell-based. An excerpt: HEK293 cells that stably express T1R3 and inducibly express T1R1 were exposed to transmembrane compounds alone or in combination with one or more amino acids and/or one or more nucleotides to activate the umami receptor. Activation of the T1R1/T1R3 receptor was detected by a change in intracellular calcium levels using a calcium sensitive fluorescent dye. Cells that express T1R3 but not T1R1 were used as a control. A FLIPR® Tetra or a FlexStation® 3 was used for data capture.
In each experiment, serial dilutions of up to 10 mM of the transmembrane compound were added to the T1R1/T1R3-expressing cells.

Assay [2] concerns the target T1, T1R1/T1R3 receptor. Put plainly: Example 8: agonist screening of transmembrane compounds on T1R1/T1R3 in HEK293 cells. The assay is classed as cell-based, cat. The note with it: for agonist profile assessment (agonist activity): transmembrane compound alone; for T1R1/T1R3 agonist: transmembrane compound tested at 0.01, 0.1 and 1 mM, HEK293 cells expressing T1R1/T1R3, intracellular calcium. On the procedure:
HEK293 cells that stably express T1R3 and inducibly express T1R1 were exposed to a transmembrane compound. Activation of the T1R1/T1R3 receptor was detected by a change in intracellular calcium levels using a calcium sensitive fluorescent dye and/or a luminescent reporter system. […] A FLIPR® Tetra or a FlexStation® 3 was used for data capture.
Each transmembrane compound was tested at concentrations of 0.01 mM, 0.1 mM, and 1 mM. […] To generate the dose response curves, the transmembrane compound was tested at concentrations of between 0.0001 mM and 1.0 mM in the presence of GMP and Ala.

For assay [3], the target named is T1, T1R1/T1R3 receptor. Put plainly: cell-based. A digest of the protocol:
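HEK293 cells stably expressing T1R3 with inducible T1R1 were given transmembrane compounds in serial dilutions up to 10 mM, alone or with amino acids and/or nucleotides. Receptor activation was read as an intracellular calcium change with a calcium-sensitive fluorescent dye; T1R3-only cells served as control.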

Assay [4] deals with T1, T1R1/T1R3 receptor. Put plainly: Example 8: PAM screening of transmembrane compounds with GMP and Ala on T1R1/T1R3 in HEK293 cells. The format is cell-based, cat. The note with it: for PAM profile assessment (PAM activity): in the presence of GMP and Alanine; for T1R1/T1R3 PAM: compound at 0.01, 0.1 and 1 mM in combination with GMP+Ala mixtures (T1-T4), PAM if response greater than sum of compound alone and GMP+Ala alone. An excerpt:
HEK293 cells that stably express T1R3 and inducibly express T1R1 were exposed to transmembrane compound alone or in combination with Ala and GMP to activate the umami receptor. Activation of the T1R1/T1R3 receptor was detected by a change in intracellular calcium levels using a calcium sensitive fluorescent dye and/or a luminescent reporter system. […] A FLIPR® Tetra or a FlexStation® 3 was used for data capture.
Dose response curves were generated for each transmembrane compound at concentrations of 0 (buffer only), 0.01, 0.1 and 1 mM, wherein each of the three concentrations of transmembrane compound was tested in combination with 0.03 mM GMP+100 mM Ala (T1); 0.6 mM GMP+10 mM Ala (T2); 0.1 mM GMP+60 mM Ala (T3) and 0.3 mM GMP+60 mM Ala (T4). The T4 mixture was also tested in a 2-fold dilution series (the T4(×) Concentration). In these experiments, the first test concentration was 2× (2 times) the T4 concentration. The subsequent test concentrations were 2-fold dilutions from that (1×, 0.5×etc.). This dilution series was tested with or without the addition of the test compound at a constant 0.3 mM concentration.
Activation of the umami receptor was also determined in the presence of 1 mM GMP+100 mM Ala to generate a “maximum” umami receptor activation level.

Assay [5] concerns the target T1, T1R1/T1R3 receptor. Put plainly: cell-based. The format is cell-based. A digest of the protocol:
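HEK293 cells stably expressing T1R3 with inducible T1R1 received serial dilutions of compound (up to 10 mM), alone or with amino acids and/or nucleotides. Activation was read as an intracellular calcium change with a calcium-sensitive fluorescent dye. Cells expressing T1R3 without T1R1 served as control.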

Where “and” joins values, the source holds several entries; their conditions need not be identical. Identical values can stand only once. Counter-ions that a name gives are not always drawn.

As to `COC(=O)[C@H](Cc1ccccc1)NCc1ccccc1` [N-benzyl-L-phenylalanine methyl ester HCl], the concentration for a half-maximal effect (EC50) at T1R1/T1R3 receptor [1] (T1R1/T1R3 EC50 +20 mM L-alanine, +20 mM L-alanine) came out at 50 ± 1 µM; at T1R1/T1R3 receptor [1] (T1R1/T1R3 EC50 alone in buffer, alone in buffer), 30 ± 2 µM.
As for `COC(=O)[C@H](Cc1ccccc1)NCc1ccccc1.Cl` [N-benzyl-L-phenylalanine methyl ester hydrochloride], the “agonist profile assessment (agonist activity)” value (shortened to “agonist profile assessment”) at T1R1/T1R3 receptor [2] was “agonist”. Moreover, on T1R1/T1R3 receptor [3], the “Max resp % of IMP, +Alanine (20 mM)” value was 273.4% and the “Thres (mM), +Alanine (20 mM)” value is 0.01 mM. For the same compound, the “Max resp ΔF/F, +IMP (0.2 mM)” value on T1R1/T1R3 receptor [3] (in the presence of 0.2 mM IMP) is on record as 2.2500 ΔF/F. Further, the “Max resp % of Ala, +IMP (0.2 mM)” value on T1R1/T1R3 receptor [3] (in the presence of 0.2 mM IMP, relative to alanine) stood at 289.4%. Further, the “Thres (mM), +IMP (0.2 mM)” value at T1R1/T1R3 receptor [3] (threshold concentration in the presence of 0.2 mM IMP) is 0.003 mM. In addition, the “PAM profile assessment (PAM activity)” value on T1R1/T1R3 receptor [4] was “PAM activity”.
For `O=C1C(=O)N(Cc2ccccc2)C(=S)N1Cc1ccccc1` [Formula 13, 1,3-dibenzyl-2-thioxoimidazolidine-4,5-dione], the T1R1/T1R3 agonist entry at T1R1/T1R3 receptor [2] is reported as “No”. Besides, on T1R1/T1R3 receptor [4], the “T1R1/T1R3 PAM” value was “No”.
Regarding `COC(=O)[C@@H](Cc1ccccc1)NCc1ccccc1.Cl` [N-Benzyl-D-Phenylalanine methyl ester hydrochloride], the “agonist profile assessment” value at T1R1/T1R3 receptor [2] is listed as “agonist”. Further, the “PAM profile assessment (PAM activity)” value at T1R1/T1R3 receptor [4] is reported as “PAM activity”.
In the case of `O=C(CN1C(=O)C(=O)N(CCc2cccs2)C1=O)c1cccc2ccccc12` [Formula 11, 1-(2-(naphthalen-1-yl)-2-oxoethyl)-3-(2-(thiophen-2-yl)ethyl)imidazolidine-2,4,5-trione], the T1R1/T1R3 agonist entry on T1R1/T1R3 receptor [2] is “No”. At T1R1/T1R3 receptor [4], the “T1R1/T1R3 PAM” value is on record as “No”.
Turning to `COc1ccc(C(=O)CN2C(=O)C(=O)N(Cc3ccccc3)C2=O)c(OC)c1` [Formula 5, 1-benzyl-3-(2-(2,4-dimethoxyphenyl)-2-oxoethyl)imidazolidine-2,4,5-trione], the T1R1/T1R3 agonist result on T1R1/T1R3 receptor [2] is given as “No”. Moreover, the “T1R1/T1R3 PAM” value on T1R1/T1R3 receptor [4] was “No”.
Regarding `Cc1ccc(CNC(Cc2ccccc2)C(=O)O)cc1` (centres unmarked) [Formula 23, 2-((4-methylbenzyl)amino)-3-phenylpropanoic acid], the T1R1/T1R3 agonist entry on T1R1/T1R3 receptor [2] was “No”. Further, the “T1R1/T1R3 PAM” value on T1R1/T1R3 receptor [4] is reported as “No”.
On to `COC(=O)[C@H](CC(C)C)NCc1ccccc1.Cl` [Benzyl-L-leucine methyl ester hydrochloride], for which, on T1R1/T1R3 receptor [2], the “agonist profile assessment” value was “agonist”. Further, on T1R1/T1R3 receptor [4], the “PAM profile assessment (PAM activity)” value is reported as “PAM activity”.
As to `O=C(CN1C(=O)C(=O)N(CCc2cccs2)C1=O)c1ccc2c(c1)OCO2` [Formula 7, 1-(2-(benzo[d][1,3]dioxol-5-yl)-2-oxoethyl)-3-(2-(thiophen-2-yl)ethyl)imidazolidine-2,4,5-trione], on T1R1/T1R3 receptor [2], the T1R1/T1R3 agonist entry is recorded as “No”. The “T1R1/T1R3 PAM” value on T1R1/T1R3 receptor [4] is “No”.
On to `N#Cc1cccc(NC(=O)CN2C(=O)C(=O)N(Cc3ccccc3)C2=O)c1` [Formula 9, 2-(3-benzyl-2,4,5-trioxoimidazolidin-1-yl)-N-(3-cyanophenyl)acetamide], for which the T1R1/T1R3 agonist result on T1R1/T1R3 receptor [2] is listed as “No”. The “T1R1/T1R3 PAM” value on T1R1/T1R3 receptor [4] is “No”.
On to `Cl.N[C@@H](Cc1ccccc1)C(=O)OCc1ccccc1` [Formula 20, L-Phenylalanine benzyl ester hydrochloride], for which, on T1R1/T1R3 receptor [2], the T1R1/T1R3 agonist result is listed as “Yes”. Also, at T1R1/T1R3 receptor [4], the “T1R1/T1R3 PAM” value is recorded as “Yes”.
With `Cl.N[C@@H](Cc1ccccc1)C(=O)OCc1ccccc1` [L-Phenylalanine benzyl ester hydrochloride], the “agonist profile assessment” value on T1R1/T1R3 receptor [2] is recorded as “agonist”. Besides, the “PAM profile assessment (PAM activity)” value on T1R1/T1R3 receptor [4] was “PAM activity”.
In the case of `O=C(CN1C(=O)C(=O)N(Cc2ccccc2)C1=O)c1ccc2c(c1)CCC2` [Formula 2, 1-benzyl-3-(2-(2,3-dihydro-1H-inden-5-yl)-2-oxoethyl)imidazolidine-2,4,5-trione], the T1R1/T1R3 agonist result on T1R1/T1R3 receptor [2] was “No”. Besides, the “T1R1/T1R3 PAM” value at T1R1/T1R3 receptor [4] is recorded as “No”.
On to `O=C(CN1C(=O)C(=O)N(Cc2ccccc2)C1=O)c1ccc(Br)cc1` [Formula 3, 1-benzyl-3-(2-(4-bromophenyl)-2-oxoethyl)imidazolidine-2,4,5-trione], for which the T1R1/T1R3 agonist entry on T1R1/T1R3 receptor [2] is given as “No”. In addition, the “T1R1/T1R3 PAM” value on T1R1/T1R3 receptor [4] is “No”.
For the compound `O=C(CN1C(=O)C(=O)N(CCc2cccs2)C1=O)c1ccccc1` [Formula 6, 1-(2-oxo-2-phenylethyl)-3-(2-(thiophen-2-yl)ethyl)imidazolidine-2,4,5-trione], the T1R1/T1R3 agonist result on T1R1/T1R3 receptor [2] was “No”. Further, the “T1R1/T1R3 PAM” value at T1R1/T1R3 receptor [4] was “No”.
For `COC(=O)C(NCc1ccccc1)c1ccccc1` (centres unmarked) [Formula 19, Methyl-2-benzylamino-2-phenylacetate], the T1R1/T1R3 agonist entry at T1R1/T1R3 receptor [2] was “Yes”. At T1R1/T1R3 receptor [4], the “T1R1/T1R3 PAM” value is recorded as “Yes”.
`O=C(CN1C(=O)C(=O)N(Cc2ccccc2)C1=O)c1ccc(Cl)s1` [Formula 12, 1-benzyl-3-(2-(5-chlorothiophen-2-yl)-2-oxoethyl)imidazolidine-2,4,5-trione]: the T1R1/T1R3 agonist result at T1R1/T1R3 receptor [2] is “No”. For the same compound, the “T1R1/T1R3 PAM” value at T1R1/T1R3 receptor [4] is on record as “Weak PAM”.
Regarding `CCCC(CCC)NC(=O)c1ccc2c(c1)OCO2` [N-(heptan-4-yl)benzo[d][1,3]dioxole-5-carboxamide], the “Max resp ΔF/F +Alanine” value at T1R1/T1R3 receptor [5] (+ Alanine, Table 17) is 1.7725 and 1.2; at T1R1/T1R3 receptor [5] (+Alanine (20 mM), Table 18), 1.2 and 1.7725. In addition, the “Max resp ΔF/F +IMP” value on T1R1/T1R3 receptor [5] (+ IMP (0.2 mM), Table 17) is 1.4725; on T1R1/T1R3 receptor [5] (+IMP (0.2 mM), Table 18), 1.393 and 1.473. For the same compound, the EC50 at T1R1/T1R3 receptor [5] (+Alanine (20 mM), Table 18, read-out: EC50 +Alanine) was 420 µM and 1100 µM; on T1R1/T1R3 receptor [5] (EC50 + IMP, + IMP (0.2 mM), Table 17), 90 µM and 100 µM; on T1R1/T1R3 receptor [5] (EC50 +Alanine + IMP, +Alanine (20 mM) + IMP (0.2 mM), Table 18), 30 µM and 100 µM; on T1R1/T1R3 receptor [5] (EC50 +IMP, +IMP (0.2 mM), Table 18), 100 µM and 90 µM; at T1R1/T1R3 receptor [5] (EC50 - with Ala (20 mM) and IMP (0.2 mM), with 20 mM alanine and 0.2 mM IMP), 30 ± 30 µM; at T1R1/T1R3 receptor [5] (EC50 - with Ala (20 mM), with 20 mM alanine) it was 420 ± 60 µM. Moreover, the concentration for a half-maximal effect (EC50) was 90 ± 40 µM at T1R1/T1R3 receptor [5] (EC50 - with IMP (0.2 mM), with 0.2 mM IMP); 260 ± 90 µM at T1R1/T1R3 receptor [5] (alone in buffer, read-out: EC50 - alone); 700 µM and 260 µM on T1R1/T1R3 receptor [5] (compound alone in buffer, Table 17, read-out: EC50 + buffer (alone)); 260 µM and 700 µM on T1R1/T1R3 receptor [5] (compound alone in buffer, Table 18, read-out: EC50 +buffer (alone)); 1100 µM and 420 µM at T1R1/T1R3 receptor [5] (read-out: EC50 + Alanine). Further, the “agonist profile assessment” value on T1R1/T1R3 receptor [2] is given as “agonist”. Besides, the “PAM profile assessment (PAM activity)” value on T1R1/T1R3 receptor [4] is reported as “PAM activity”.
